Usually melting point stands for the temperature, or range, at which the solid turns liquid. A word on the IC50: it is the midpoint of a concentration-inhibition curve.

System in one series: not given
Assay: not given
Settings: not given
Molecule `CC(C)(CCNC(=O)[C@H]1CN(C2c3ccc(Cl)cc3CCc3cc(Br)cnc32)CCN1C(=O)NC1CCCCC1)n1ccnc1` (stereo partly drawn) [Example 1] displayed a melting point of 142 to 144 °C.
As for `CC(C)(CCNC(=O)[C@H]1CN([C@H]2c3ccc(Cl)cc3CCc3cc(Br)cnc32)CCN1C(=O)CC1CCN(C(N)=O)CC1)n1ccnc1` [Example 8], the melting point was 123 to 127 °C.
The molecule `CC(C)(C)NC(=O)N1CCN([C@@H]2c3ccc(Cl)cc3CCc3cc(Br)cnc32)C[C@@H]1C(=O)NCCC(C)(C)n1ccnc1` [Example 11] had a melting point of 157 to 159 °C.
The molecule `CC(C)OC(=O)N1CCN([C@H]2c3ccc(Cl)cc3CCc3cc(Br)cnc32)C[C@@H]1C(=O)NCCC(C)(C)n1ccnc1` [Example 16] had a melting point of 109 to 111 °C.
Same read-out and setting: under `NC(=O)[C@H](Cc1cnc[nH]1)NC(=O)[C@H]1CN(C2c3ccc(Cl)cc3CCc3cc(Br)cnc32)CCN1C(=O)NC1CCCCC1` (stereo partly drawn) [Example 25] stands 164 to 169 °C.

Another series deals with Human tumor cells. As to the kind of experiment: Soft Agar Assay (anchorage-independent growth). It is filed as cell-based. As to conditions: Homo sapiens, range stated for the group unless single. On the procedure:
Anchorage-independent growth is a characteristic of tumorigenic cell lines. Human tumor cells can be suspended in growth medium containing 0.3% agarose and an indicated concentration of a farnesyl transferase inhibitor. The solution can be overlayed onto growth medium solidified with 0.6% agarose containing the same concentration of farnesyl transferase inhibitor as the top layer. After the top layer is solidified, plates can be incubated for 10-16 days at 37° C. under 5% CO2 to allow colony outgrowth. After incubation, the colonies can be stained by overlaying the agar with a solution of MTT (3-[4,5-dimethyl-thiazol-2-yl]-2,5-diphenyltetrazolium bromide, Thiazolyl blue) (1 mg/mL in PBS). Colonies can be counted and the IC50's can be determined.
Consider `CC(C)(C)NC(=O)N1CCN([C@@H]2c3ccc(Cl)cc3CCc3cc(Br)cnc32)C[C@@H]1C(=O)NCCC(C)(C)n1ccnc1` [Example 11], for which the IC50 was in the range of 2 to 300 nM.
With `CC(C)OC(=O)N1CCN([C@H]2c3ccc(Cl)cc3CCc3cc(Br)cnc32)C[C@@H]1C(=O)NCCC(C)(C)n1ccnc1` [Example 16], the IC50 is 2 to 300 nM.
In turn, `O=C([C@H]1CN([C@@H]2c3ccc(Cl)cc3CCc3cccnc32)CCN1C(=O)OC1CCCCC1)N(CCCn1ccnc1)Cc1ccccc1` [Example 188] returned an IC50 of 2 to 10 nM.
Turning to `Cc1cn(CCCN(Cc2ccccc2)C(=O)[C@H]2CN([C@@H]3c4ccc(Cl)cc4CCc4cc(Br)cnc43)CCN2C(=O)OC(C)C)cn1` [Example 196], the IC50 lay within 2 to 10 nM.
Take `Cc1cn(CCCN(Cc2ccccc2)C(=O)[C@H]2CN([C@@H]3c4ccc(Cl)cc4CCc4cc(Br)cnc43)CCN2C(=O)OC2CCCCC2)cn1` [Example 197]: the IC50 fell in the range of 2 to 10 nM.
As for `Cc1cn(CCCN(Cc2ccccc2)C(=O)[C@H]2CN([C@@H]3c4ccc(Cl)cc4CCc4cccnc43)CCN2C(=O)OC2CCCCC2)cn1` [Example 198], the IC50 lay within 2 to 10 nM.
The molecule `Cc1cn(CCCN(Cc2ccccc2)C(=O)[C@H]2CN([C@H]3c4ccc(Cl)cc4CCc4cccnc43)CCN2C(=O)OC(C)C)cn1` [Example 200] returned an IC50 of 2 to 10 nM.
With `Cc1cn(CCCN(Cc2ccccc2)C(=O)[C@H]2CN([C@@H]3c4ccc(Cl)cc4CCc4cccnc43)CCN2C(=O)OC2CCCC2)cn1` [Example 202], the IC50 lay in the range of 2 to 10 nM.
Consider `CC(C)OC(=O)N1CCN([C@H]2c3ccc(Cl)cc3CCc3cccnc32)C[C@@H]1C(=O)N(CCCn1ccnc1)Cc1ccc(F)cc1` [Example 204], for which the IC50 was in the range of 2 to 10 nM.
As to `CC(C)(C)OC(=O)N1CCN([C@H]2c3ccc(Cl)cc3CCc3cc(Br)cnc32)C[C@@H]1C(=O)N(CCCn1ccnc1)Cc1cccnc1` [Example 206], the IC50 lay within 2 to 10 nM.
For the molecule `CC(C)(C)OC(=O)N1CCN([C@@H]2c3ccc(Cl)cc3CCc3cc(Br)cnc32)C[C@@H]1C(=O)N(CCCn1ccnc1)Cc1cccnc1` [Example 207], the 50% inhibitory concentration (IC50) lay in the range of 2 to 10 nM.
As for `O=C([C@H]1CN([C@H]2c3ccc(Cl)cc3CCc3cccnc32)CCN1C(=O)OC1CCCCC1)N(CCCn1ccnc1CO)Cc1ccccc1` [Example 208], the IC50 fell in the range of 2 to 10 nM.
`CC(C)(C)OC(=O)N1CCN(C2c3ccc(Cl)cc3CCc3cc(Br)cnc32)C[C@@H]1C(=O)N(CCCn1ccnc1)Cc1ccccn1` (stereo partly drawn) [Example 217] displayed an IC50 of 2 to 10 nM.
On to `Cc1cn(CCCN(Cc2ccccc2)C(=O)[C@H]2CN([C@H]3c4ccc(Cl)cc4CCc4cccnc43)CCN2C(=O)OC2CCCCC2)cn1` [Example 225], for which the IC50 was 2 to 10 nM.
`Cc1cn(CCCN(Cc2cccc(Cl)c2)C(=O)[C@H]2CN([C@H]3c4ccc(Cl)cc4CCc4cccnc43)CCN2C(=O)OC2CCCCC2)cn1` [Example 322] registered a half-maximal inhibitory concentration (IC50) of 2 to 10 nM.
The molecule `Cn1cncc1CCCN(Cc1ccccc1)C(=O)[C@H]1CN([C@H]2c3ccc(Cl)cc3CCc3cccnc32)CCN1C(=O)OC1CCCCC1` [Example 335] gave an IC50 of 2 to 10 nM.
With `Cc1cn(CC(O)(CNC(=O)[C@H]2CN(C3c4ccc(Cl)cc4CCc4cccnc43)CCN2C(=O)OC2CCCCC2)c2ccccc2)cn1` (stereo partly drawn) [Example 339], the IC50 fell in the range of 2 to 10 nM.
Molecule `Cc1ncc(CCN(CC2CC2)C(=O)[C@H]2CN([C@H]3c4ccc(Cl)cc4CCc4cccnc43)CCN2C(=O)OC(C)(C)C)n1C` [Example 365] showed an IC50 of 2 to 10 nM.

Still in this series, the particulars now being: range stated for the group unless single.
As for `Cc1cn(CCCN(Cc2ccccc2)C(=O)[C@H]2CN([C@H]3c4ccc(Cl)cc4CCc4cccnc43)CCN2C(=O)OC2CCCCC2)cn1` [Example 225], the IC50 turned out to be 2 nM.

The test system of another series is COS Cell. As to the kind of experiment: COS Cell IC50 (Cell-Based Assay). As to conditions: range stated for the group. On the procedure: FPT IC50 (inhibition of farnesyl protein transferase, in vitro enzyme assay) and COS Cell IC50 (Cell-Based Assay) were determined following the assay procedures described in WO 95/10516, published Apr. 20, 1995. GGPT IC50 (inhibition of geranylgeranyl protein transferase, in vitro enzyme assay), Cell Mat Assay, and anti-tumor activity (in vivo anti-tumor studies) could be determined by the assay procedures described in WO 95/10516. The disclosure of WO 95/10516 is incorporated herein by reference thereto.
`CC(C)(CCNC(=O)[C@H]1CN(C2c3ccc(Cl)cc3CCc3cc(Br)cnc32)CCN1C(=O)NC1CCCCC1)n1ccnc1` (stereo partly drawn) [Example 1] showed an IC50 of 10 to 920 nM.
Take `CC(C)(CCNC(=O)[C@H]1CN([C@H]2c3ccc(Cl)cc3CCc3cc(Br)cnc32)CCN1C(=O)CC1CCN(C(N)=O)CC1)n1ccnc1` [Example 8]: the IC50 lay in the range of 10 to 920 nM.
For the molecule `NC(=O)[C@H](Cc1cnc[nH]1)NC(=O)[C@H]1CN(C2c3ccc(Cl)cc3CCc3cc(Br)cnc32)CCN1C(=O)NC1CCCCC1` (stereo partly drawn) [Example 25], the half-inhibitory concentration (IC50) fell in the range of 10 to 920 nM.
The same measure, in the same setting: to `Cn1cncc1CCCNC(=O)[C@H]1CN(C2c3ccc(Cl)cc3CCc3cc(Br)cnc32)CCN1C(=O)NC1CCCCC1` (stereo partly drawn) [Example 101] belongs no more than 35 nM; to `CC(C)(C)NC(=O)N1CCN(C2c3ccc(Cl)cc3CCc3cc(Br)cnc32)C[C@@H]1C(=O)NCCCn1ccnc1N` (stereo partly drawn) [Example 103], no more than 35 nM.
Consider `Cc1cn(CCNC(=O)[C@H]2CN(C3c4ccc(Cl)cc4CCc4cc(Br)cnc43)CCN2C(=O)NC2CCCCC2)cn1` (stereo partly drawn) [Example 259], for which the IC50 is no more than 35 nM.

For the origin of these results see patent US6372747B1, “Farnesyl protein transferase inhibitors” (Schering Corporation, priority 1998, dated 2002).
